{"source": "paper PMC10426190", "about": "(Breast Cancer Research : BCR, 2023)", "key": {"[1]": {"tested_on": "intracranial MCF-7 tumors", "experiment": "Intracranial MCF-7 tumor model", "format": "in vivo, mouse", "protocol": "Female NPG mice were used for the intracranial MCF-7 tumor model. Three days before tumor cell implantation, estrogen pellets (0.72 mg, 17β-Estradiol, 60-day release, Innovative Research of America, Sarasota, FL, USA) were implanted subcutaneously. Each mouse was intracranially injected with 2 × 10^6 MCF-7 (ATCC) cells. […] Survival of mice was evaluated until Day 60. Mice were euthanized with weight loss exceeding 20% or moribund. On Day 60, all the mice remaining alive were euthanized. Before euthanasia, the mice were perfused with 4% paraformaldehyde and the brain tissues were collected for H&E staining using A[…] (Leica, Wetzlar, Germany).\n(§1) Statistical and graphical presentations were performed using IDBS XLfit and GraphPad Prism 9. For cell proliferation assays, the IC50 was calculated by fitting a dose–response curve using a nonlinear regression model with a log(inhibitor) vs response curve fit. […] P-values < 0.05 were considered statistically significant."}, "MCF7 ESR1 D538G cells": {"tested_on": "MCF7 ESR1 D538G cells", "experiment": "Viability assay (CellTiter-Glo, 7 days), MCF7 D538G", "format": "cell-based, human", "details": "MCF-8 D538G", "protocol": "(§2) Trypsinized cells were dispensed into 384-well plates in culture media and after overnight incubation cells were treated with compounds for 7 days. Cell viability was assessed using CellTiter-Glo (Promega) according to the manufacturer’s protocol and relative luminescence units (RLU) were measured using an Envision Multilabel Reader (Perkin Elmer). […] IC50 and Imax were analyzed with IDBS XLfit.\nas §1"}, "T47D subcutaneous tumors": {"tested_on": "T47D subcutaneous tumors", "experiment": "T47D subcutaneous xenograft mouse model", "format": "in vivo", "details": "T47D sc, 250 mg/kg subcutaneous once a week", "protocol": "Female Balb/c nude mice were used for MCF-7 and T47D tumor subcutaneous xenograft studies. At least one day before tumor cell implantation, estrogen pellets (0.18 mg, 17β-Estradiol, 60-day release, Innovative Research of America, Sarasota, FL, USA) were implanted subcutaneously. Each mouse was subcutaneously injected with 1 × 10^7 MCF-7 (ECACC) or T47D cells in the right flank, and tumor growth was monitored. The long diameter (a) and the short diameter (b) of the tumor were measured using a caliper, and the tumor volume was calculated using the following formula: V = 0.5 × a × b^2. […] Tumor volumes were evaluated twice per week. Treatment tolerability was assessed by body weight measurements and frequent observation for clinical signs of treatment-related adverse effects.\nas §1"}, "[2]": {"tested_on": "advanced HR + /HER2- breast cancer", "details": "cited from earlier work"}, "ERα": {"target": "T1, ERα (Homo sapiens, UniProt P03372)", "T1 sequence (P03372 1-595)": "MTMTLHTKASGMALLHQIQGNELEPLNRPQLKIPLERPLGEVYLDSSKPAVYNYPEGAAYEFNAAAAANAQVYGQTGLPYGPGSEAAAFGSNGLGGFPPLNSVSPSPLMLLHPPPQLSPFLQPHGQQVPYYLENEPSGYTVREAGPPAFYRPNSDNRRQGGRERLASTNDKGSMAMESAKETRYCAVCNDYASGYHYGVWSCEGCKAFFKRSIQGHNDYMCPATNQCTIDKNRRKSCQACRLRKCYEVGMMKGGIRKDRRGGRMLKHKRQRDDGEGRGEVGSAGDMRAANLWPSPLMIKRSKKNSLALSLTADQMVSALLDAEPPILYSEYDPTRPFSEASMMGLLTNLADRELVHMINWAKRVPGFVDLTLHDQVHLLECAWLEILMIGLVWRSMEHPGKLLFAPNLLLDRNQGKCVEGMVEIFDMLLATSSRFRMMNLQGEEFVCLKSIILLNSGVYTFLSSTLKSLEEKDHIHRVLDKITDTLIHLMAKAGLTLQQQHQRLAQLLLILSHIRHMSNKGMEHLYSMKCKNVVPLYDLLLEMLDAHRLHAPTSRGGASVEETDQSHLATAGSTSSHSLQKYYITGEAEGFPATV", "experiment": "ERα degradation assay, In-Cell Western, MCF-7 WT", "format": "cell-based", "set-up": "MCF-7 wild type and Y537S mutant cells were seeded at a density of 5000 cells per well; host or cells: MCF-7", "details": "24 h", "protocol": "MCF-7 wild type and Y537S mutant cells were seeded at a density of 5000 cells per well into flat clear bottom tissue cultured-treated 384-well plates (Greiner) in culture media and after overnight incubation cells were treated with compounds for 24 h. Then plates were fixed with 4% formaldehyde, permeabilized with ice-cold methanol, and blocked with Odyssey Blocking Buffer (LI-COR). The fixed cells were incubated with rabbit anti- ERα antibody (CST#8644S) and mouse anti-GAPDH antibody (Abcam #ab8245), washed and stained with IRDye 800 Goat anti-Rabbit IgG (Licor#926-32211) and IRDye 680 Goat anti-Mouse IgG (Licor#926-68070). ERα levels were quantitated using Sapphire RGBNIR (Azure), the acumen eX3 imaging system. […] IC50 and Emax were analyzed with IDBS XLfit.\nMCF7 cells were seeded in a 384-well plate and linear-dilution compounds were administrated in duplicate for each treatment. After incubation for 24 h, Cells in the assay pate were treated as described in methods. ERα levels were quantified by immunofluorescence assay. […] Cells were dispended into 96-well plates and incubated for 24 h with compounds (100 nM) treatment. […] Cells were seeded in 384-well plates and treated with linear-dilution compounds for 7 days of incubation. Cell viability was assessed using CellTiter-Glo. Cell growth inhibition is presented as a percentage of CellTiterGlo activity relative to the vehicle control. […] Then cells in each well were collected and the targeting proteins in lysate supernatant were detected by WB\nCells were seeded at a density of 5,000 cells per well into 384-well plates and treated with linear-titration compounds in duplicate for 24 hours. ERα levels were quantified by immunofluorescence assay as described in the method. The detection signals were captured by Odyssey."}, "MCF-7 Y537S cells": {"tested_on": "MCF-7 Y537S cells", "experiment": "Viability assay (CellTiter-Glo, 7 days), MCF-7 Y537S", "format": "cell-based, human", "protocol": "as §2, §1"}}}
{"smiles": "C[C@]12CC[C@@H]3c4ccc(O)cc4C[C@@H](CCCCCCCCC[S+]([O-])CCCC(F)(F)C(F)(F)F)[C@H]3[C@@H]1CC[C@@H]2O", "note": "(stereo partly shown) [Fulvestrant]", "values": [{"measurement": "median survival time", "setting": "[1]; 250 mg/kg subcutaneous once a week", "result": 27, "unit": "days"}, {"measurement": "tumor cell infiltration in brain tissues (H&E)", "setting": "[1]; Fulvestrant 250 mg/kg, SCR-6852 3 mg/kg", "result": "significant tumor cells infiltration"}, {"measurement": "IC50", "setting": "MCF7 ESR1 D538G cells; Homo sapiens, MCF7, 168 h", "result": 11.1, "unit": "nM"}, {"measurement": "Viability assay Emax [% Ful.]", "setting": "MCF7 ESR1 D538G cells", "result": 106.1, "unit": "% Ful."}, {"measurement": "Viability assay Emax [% Veh.]", "setting": "MCF7 ESR1 D538G cells", "result": 68.57, "unit": "% Veh."}, {"measurement": "TGI", "setting": "T47D subcutaneous tumors", "result": 48.35, "unit": "%"}, {"measurement": "median OS", "setting": "[2]", "result": 29.7, "unit": "months"}, {"measurement": "PFS", "setting": "[2]; progressed on prior ET ref 45", "result": 4.6, "unit": "months"}, {"measurement": "ERα degradation assay Dmax [% Ful.]", "setting": "ERα", "result": 97.69, "unit": "% Ful."}, {"measurement": "ERα degradation assay Dmax [% Veh.]", "setting": "ERα", "result": 56.04, "unit": "% Veh."}, {"measurement": "Viability assay Emax [% Ful.]", "setting": "MCF-7 Y537S cells", "result": 95.49, "unit": "% Ful."}, {"measurement": "Viability assay Emax [% Veh.]", "setting": "MCF-7 Y537S cells", "result": 65.05, "unit": "% Veh."}, {"measurement": "IC50", "setting": "MCF-7 Y537S cells; Homo sapiens, MCF7, 168 h", "result": 16.3, "unit": "nM"}]}
